What was measured:
CRBN and Helios (IKZF2) = target: T1, CRBN and Helios (IKZF2) (Homo sapiens, UniProt Q96SW2+Q9UKS7); assay: TR-FRET dimerization assay (CRBN-IKZF2 ternary complex formation); assay type: binding; conditions: n=1
T1 construct: His (N); Strep (N)
Method in brief: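 Compound-induced IKZF2 recruitment to CRBN was read as the 520/490 nm TR-FRET ratio after 15 min at rt. The mix held biotinylated IKZF2, BODIPY-labeled CRBN bound to DDB1 lacking the BPB propeller, tracer Tb-streptavidin and compound titrations; n=1, from ≥3 technical replicates per well.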

GSPT1 = GSPT1 (Homo sapiens, UniProt P15170+Q96SW2); assay: Cellular degradation assay, eGFP-GSPT1 fusion with mCherry reporter in Flp-In 293 cells; assay type: cell-based; set-up: expressed in transfected cells; host or cells: Flp-In 293; conditions: 5 h incubation, n=1
Chain of GSPT1 (P15170 whole entry, the tested form may be a part): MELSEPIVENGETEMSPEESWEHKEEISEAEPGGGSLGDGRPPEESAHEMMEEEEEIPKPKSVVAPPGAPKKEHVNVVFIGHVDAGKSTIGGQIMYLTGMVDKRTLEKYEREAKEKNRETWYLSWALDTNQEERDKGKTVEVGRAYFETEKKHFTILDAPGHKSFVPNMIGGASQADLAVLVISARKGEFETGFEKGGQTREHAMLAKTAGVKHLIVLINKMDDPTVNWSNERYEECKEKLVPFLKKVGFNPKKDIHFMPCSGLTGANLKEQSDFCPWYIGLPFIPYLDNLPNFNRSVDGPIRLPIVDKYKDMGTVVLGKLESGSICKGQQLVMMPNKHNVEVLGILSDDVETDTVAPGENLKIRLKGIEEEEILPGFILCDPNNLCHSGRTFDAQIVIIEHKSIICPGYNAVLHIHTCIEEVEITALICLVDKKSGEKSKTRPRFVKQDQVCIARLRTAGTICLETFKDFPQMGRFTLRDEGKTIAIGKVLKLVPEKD
Chain of GSPT1 (Q96SW2 whole entry, the tested form may be a part): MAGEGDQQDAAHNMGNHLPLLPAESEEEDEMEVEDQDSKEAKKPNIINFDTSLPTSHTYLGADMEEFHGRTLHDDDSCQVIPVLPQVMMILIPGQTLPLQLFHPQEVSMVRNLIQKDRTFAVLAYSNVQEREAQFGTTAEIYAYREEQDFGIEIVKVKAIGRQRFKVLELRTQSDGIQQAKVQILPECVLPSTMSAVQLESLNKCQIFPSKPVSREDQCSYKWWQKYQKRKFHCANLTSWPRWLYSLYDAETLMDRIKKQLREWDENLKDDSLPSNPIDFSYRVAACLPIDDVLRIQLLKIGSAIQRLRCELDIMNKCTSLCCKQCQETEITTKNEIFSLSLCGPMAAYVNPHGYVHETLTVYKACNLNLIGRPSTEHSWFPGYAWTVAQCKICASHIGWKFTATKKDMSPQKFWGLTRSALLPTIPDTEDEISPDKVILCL
Chain of GSPT1 (Q16531 whole entry partner, the tested form may be a part): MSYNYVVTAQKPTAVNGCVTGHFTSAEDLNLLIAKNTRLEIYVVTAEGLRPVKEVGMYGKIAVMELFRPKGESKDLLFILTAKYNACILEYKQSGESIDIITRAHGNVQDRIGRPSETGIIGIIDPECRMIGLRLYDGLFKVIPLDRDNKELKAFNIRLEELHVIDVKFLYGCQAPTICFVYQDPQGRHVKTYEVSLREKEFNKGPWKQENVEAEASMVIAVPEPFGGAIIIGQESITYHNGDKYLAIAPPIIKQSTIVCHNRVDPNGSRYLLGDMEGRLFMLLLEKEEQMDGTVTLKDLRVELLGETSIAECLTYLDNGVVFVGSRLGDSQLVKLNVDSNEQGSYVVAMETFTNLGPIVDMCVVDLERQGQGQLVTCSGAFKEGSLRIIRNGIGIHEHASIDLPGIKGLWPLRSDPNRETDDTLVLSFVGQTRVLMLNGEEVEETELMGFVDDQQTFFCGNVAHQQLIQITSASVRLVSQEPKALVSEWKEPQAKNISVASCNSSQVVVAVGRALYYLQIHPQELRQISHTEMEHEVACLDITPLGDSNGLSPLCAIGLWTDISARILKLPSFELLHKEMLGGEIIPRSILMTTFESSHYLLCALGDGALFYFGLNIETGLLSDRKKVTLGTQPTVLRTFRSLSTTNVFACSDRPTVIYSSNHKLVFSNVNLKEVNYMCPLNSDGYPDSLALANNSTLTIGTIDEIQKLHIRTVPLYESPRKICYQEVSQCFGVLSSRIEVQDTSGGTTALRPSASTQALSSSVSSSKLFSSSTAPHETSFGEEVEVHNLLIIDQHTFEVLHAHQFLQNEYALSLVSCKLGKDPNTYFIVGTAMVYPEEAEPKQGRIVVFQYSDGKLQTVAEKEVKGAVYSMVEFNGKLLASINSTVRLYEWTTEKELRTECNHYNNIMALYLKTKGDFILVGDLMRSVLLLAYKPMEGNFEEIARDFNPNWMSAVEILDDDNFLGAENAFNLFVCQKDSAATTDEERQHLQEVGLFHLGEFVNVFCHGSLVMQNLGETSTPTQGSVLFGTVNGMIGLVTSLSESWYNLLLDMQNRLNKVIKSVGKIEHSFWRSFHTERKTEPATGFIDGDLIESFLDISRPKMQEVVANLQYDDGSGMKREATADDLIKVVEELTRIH
Method in brief: (§1)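 DC50,5 h derived by variable-slope nonlinear fit of the per-well ratio of GFP-positive to mCherry-positive cells, imaged after 5 h compound exposure at 0.5% DMSO.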

SALL4 ZNF1-2 = target: T2, SALL4 ZNF1-2 (Homo sapiens, UniProt Q96SW2+Q9UJQ4); assay: Cellular degradation assay, eGFP-SALL4 ZnF1-2 fusion with mCherry reporter in Flp-In 293 cells; assay type: cell-based; conditions: 5 h incubation, n=1
T2 construct: IKZF1Δ, IKZF2Δ, GSPT1 and SALL4 ZnF1-2 were subcloned; expressed in transfected cells; host or cells: Flp-In 293
T2 sequence (Q9UJQ4 378-438 limits assumed): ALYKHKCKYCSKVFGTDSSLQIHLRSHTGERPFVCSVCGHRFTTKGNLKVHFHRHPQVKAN
T2 sequence (Q96SW2 whole entry, the tested form may be a part): as the sequence (Q96SW2 whole entry, the tested form may be a part) above
T2 sequence (Q16531 whole entry partner, the tested form may be a part): as the sequence (Q16531 whole entry partner, the tested form may be a part) above
Method in brief: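 Read-out is the ratio of GFP-positive to mCherry-positive cells per well, imaged at 488 and 561 nm right after 5-hour compound exposure (normalised to 0.5% DMSO). Cells: Flp-In 293 stably carrying eGFP-P2A-mCherry construct fused to SALL4 ZnF1-2.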

IKZF2 = assay: Cellular degradation assay, eGFP-IKZF2Δ fusion with mCherry reporter in Flp-In 293 cells; assay type: cell-based; conditions: 5 h incubation, n=1
Method in brief: as §1

IKZF1 = target: T3, IKZF1 (Homo sapiens, UniProt Q13422); assay: Cellular degradation assay, eGFP-IKZF1Δ fusion with mCherry reporter in Flp-In 293 cells; assay type: cell-based; conditions: 5 h incubation, n=1
T3 construct: expressed in transfected cells; host or cells: Flp-In 293
T3 sequence (Q13422 83-213 isoform Q13422-7 limits assumed): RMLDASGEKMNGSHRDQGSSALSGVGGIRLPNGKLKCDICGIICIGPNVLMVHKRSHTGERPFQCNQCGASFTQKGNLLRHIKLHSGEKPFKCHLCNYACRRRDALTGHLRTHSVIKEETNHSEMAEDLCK
T3 sequence (Q96SW2 whole entry partner, the tested form may be a part): as the sequence (Q96SW2 whole entry, the tested form may be a part) above
T3 sequence (Q16531 2-1140 partner limits assumed): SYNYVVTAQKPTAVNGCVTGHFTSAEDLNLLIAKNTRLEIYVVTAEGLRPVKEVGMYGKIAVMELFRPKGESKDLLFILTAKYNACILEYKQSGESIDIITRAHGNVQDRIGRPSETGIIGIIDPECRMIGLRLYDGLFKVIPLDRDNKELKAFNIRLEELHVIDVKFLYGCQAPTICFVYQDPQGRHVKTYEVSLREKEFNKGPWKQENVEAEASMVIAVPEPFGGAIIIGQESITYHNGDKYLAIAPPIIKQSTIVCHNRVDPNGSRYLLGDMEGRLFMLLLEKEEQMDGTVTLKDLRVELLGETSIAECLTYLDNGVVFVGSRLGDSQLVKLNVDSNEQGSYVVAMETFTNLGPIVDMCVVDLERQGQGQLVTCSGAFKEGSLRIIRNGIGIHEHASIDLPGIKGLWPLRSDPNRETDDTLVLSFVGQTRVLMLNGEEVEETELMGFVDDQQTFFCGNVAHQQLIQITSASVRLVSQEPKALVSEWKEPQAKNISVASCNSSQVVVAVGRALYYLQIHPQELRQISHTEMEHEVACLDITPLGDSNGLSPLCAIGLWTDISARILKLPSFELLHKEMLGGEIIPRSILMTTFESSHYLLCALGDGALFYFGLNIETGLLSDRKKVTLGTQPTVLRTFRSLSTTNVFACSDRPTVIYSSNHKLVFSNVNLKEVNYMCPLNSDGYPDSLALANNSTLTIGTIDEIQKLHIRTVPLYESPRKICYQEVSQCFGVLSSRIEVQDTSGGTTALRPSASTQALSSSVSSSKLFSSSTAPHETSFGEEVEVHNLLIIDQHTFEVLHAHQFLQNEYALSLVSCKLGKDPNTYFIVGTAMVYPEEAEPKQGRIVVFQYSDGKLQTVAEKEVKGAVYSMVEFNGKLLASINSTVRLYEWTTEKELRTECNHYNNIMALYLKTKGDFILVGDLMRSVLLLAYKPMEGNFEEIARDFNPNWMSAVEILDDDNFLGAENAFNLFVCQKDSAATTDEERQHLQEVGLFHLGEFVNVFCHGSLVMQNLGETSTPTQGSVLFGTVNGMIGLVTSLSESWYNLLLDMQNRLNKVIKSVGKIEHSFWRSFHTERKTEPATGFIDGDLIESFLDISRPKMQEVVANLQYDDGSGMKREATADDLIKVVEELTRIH
Method in brief: as §1

[1] = compound concentration 6.6667E−05
[2] = compound concentration 6.6667E−06
[3] = compound concentration 6.6667E−07 (667 nM)
[4] = compound concentration 2.00E−05
[5] = compound concentration 2.00E−06
[6] = compound concentration 2.00E−07

T1 sequence (Q96SW2 whole entry): as the sequence (Q96SW2 whole entry, the tested form may be a part) above
T1 sequence (Q9UKS7 whole entry): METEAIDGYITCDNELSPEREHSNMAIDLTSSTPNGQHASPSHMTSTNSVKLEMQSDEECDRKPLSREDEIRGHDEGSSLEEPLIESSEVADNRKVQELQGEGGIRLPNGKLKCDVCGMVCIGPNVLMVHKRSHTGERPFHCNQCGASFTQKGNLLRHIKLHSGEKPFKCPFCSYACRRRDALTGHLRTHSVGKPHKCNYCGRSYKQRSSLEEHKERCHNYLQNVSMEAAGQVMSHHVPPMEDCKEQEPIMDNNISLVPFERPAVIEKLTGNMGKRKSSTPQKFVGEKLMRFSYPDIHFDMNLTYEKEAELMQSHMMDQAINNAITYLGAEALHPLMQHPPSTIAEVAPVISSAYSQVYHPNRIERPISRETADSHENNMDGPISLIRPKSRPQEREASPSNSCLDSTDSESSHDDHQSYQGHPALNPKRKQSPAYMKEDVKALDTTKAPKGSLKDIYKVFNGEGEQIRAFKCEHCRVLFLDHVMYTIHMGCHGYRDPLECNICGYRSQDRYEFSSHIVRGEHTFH

Compound | TR-FRET-IKZF2 (Normalized to CC-885) (CRBN and Helios (IKZF2); [1]) | TR-FRET-IKZF2 (Normalized to CC-885) (CRBN and Helios (IKZF2); [2]) | TR-FRET-IKZF2 (Normalized to CC-885) (CRBN and Helios (IKZF2); [3]) | GSPT1 GFP/RFP Relative Abundance (GSPT1; [4]) | GSPT1 GFP/RFP Relative Abundance (GSPT1; [5]) | GSPT1 GFP/RFP Relative Abundance (GSPT1; [6]) | SALL4 ZNF1-2 GFP/RFP Relative Abundance (SALL4 ZNF1-2; [4]) | SALL4 ZNF1-2 GFP/RFP Relative Abundance (SALL4 ZNF1-2; [5]) | SALL4 ZNF1-2 GFP/RFP Relative Abundance (SALL4 ZNF1-2; [6]) | IKZF2 GFP/RFP Relative Abundance (IKZF2; [4]) | IKZF2 GFP/RFP Relative Abundance (IKZF2; [5]) | IKZF2 GFP/RFP Relative Abundance (IKZF2; [6]) | IKZF1 GFP/RFP Relative Abundance (IKZF1; [4]) | IKZF1 GFP/RFP Relative Abundance (IKZF1; [5]) | IKZF1 GFP/RFP Relative Abundance (IKZF1; [6])
O=C1CCC(N2C(=O)C=C(Nc3ccc(Cc4ccccc4)cc3)C2=O)C(=O)N1 (stereo not drawn) [Compound 39, 3-(3-((4-benzylphenyl)amino)-2,5-dioxo-2,5-dihydro-1H-pyrrol-1-yl)piperidine-2,6-dione] | 0.271 | 0.230 | 0.174 | 0.743 | 0.813 | 0.830 | 1.110 | 1.006 | 1.043 | 1.070 | 1.008 | 1.047 | 0.705 | 0.691 | 0.677
Cc1ccc(NC(=O)NCCNC2=CC(=O)N(C3CCC(=O)NC3=O)C2=O)cc1Cl (stereo not drawn) [Compound 41, 1-(3-chloro-4-methylphenyl)-3-(2-((1-(2,6-dioxopiperidin-3-yl)-2,5-dioxo-2,5-dihydro-1H-pyrrol-3-yl)amino)ethyl)urea] | 0.170 | 0.126 | 0.104 | 0.038 | 0.062 | 0.077 | 1.020 | 0.994 | 1.004 | 0.969 | 1.027 | 1.040 | 0.638 | 0.909 | 1.003
Cc1ccc(NC(=O)Nc2ccc(NC3=CC(=O)N(C4CCC(=O)NC4=O)C3=O)cc2)cc1Cl (stereo not drawn) [Compound 42, 1-(3-chloro-4-methylphenyl)-3-(4-((1-(2,6-dioxopiperidin-3-yl)-2,5-dioxo-2,5-dihydro-1H-pyrrol-3-yl)amino)phenyl)urea] | 0.407 | 0.318 | 0.209 | 0.118 | 0.182 | 0.215 | 1.122 | 0.997 | 1.018 | 1.056 | 1.050 | 0.999 | 0.775 | 0.536 | 0.577
Cc1ccc(NC(=O)Nc2cccc(NC3=CC(=O)N(C4CCC(=O)NC4=O)C3=O)c2)cc1Cl (stereo not drawn) [Compound 43, 1-(3-chloro-4-methylphenyl)-3-(3-((1-(2,6-dioxopiperidin-3-yl)-2,5-dioxo-2,5-dihydro-1H-pyrrol-3-yl)amino)phenyl)urea] | 0.443 | 0.353 | 0.278 | 0.083 | 0.072 | 0.087 | 1.072 | 0.897 | 0.888 | 1.054 | 1.007 | 0.980 | 0.996 | 0.240 | 0.301
Cc1ccc(NC(=O)NCc2ccccc2NC2=CC(=O)N(C3CCC(=O)NC3=O)C2=O)cc1Cl (stereo not drawn) [Compound 45, 1-(3-chloro-4-methylphenyl)-3-(2-((1-(2,6-dioxopiperidin-3-yl)-2,5-dioxo-2,5-dihydro-1H-pyrrol-3-yl)amino)benzyl)urea] | 0.079 | 0.059 | 0.051 | 0.476 | 0.921 | 1.093 | 1.059 | 0.993 | 0.948 | 1.015 | 1.022 | 1.022 | 0.957 | 1.027 | 1.060
Cc1ccc(NC(=O)NCc2ccc(NC3=CC(=O)N(C4CCC(=O)NC4=O)C3=O)cc2)cc1Cl (stereo not drawn) [Compound 46, 1-(3-chloro-4-methylphenyl)-3-(4-((1-(2,6-dioxopiperidin-3-yl)-2,5-dioxo-2,5-dihydro-1H-pyrrol-3-yl)amino)benzyl)urea] | 0.787 | 0.828 | 0.701 | 0.048 | 0.089 | 0.076 | 0.950 | 0.906 | 0.854 | 0.242 | 0.361 | 0.510 | 0.045 | 0.087 | 0.112
Cc1ccc(NC(=O)NCCCNC2=CC(=O)N(C3CCC(=O)NC3=O)C2=O)cc1Cl (stereo not drawn) [Compound 47, 1-(3-chloro-4-methylphenyl)-3-(3-((1-(2,6-dioxopiperidin-3-yl)-2,5-dioxo-2,5-dihydro-1H-pyrrol-3-yl)amino)propyl)urea] | 0.288 | 0.230 | 0.191 | 0.034 | 0.041 | 0.036 | 1.060 | 1.039 | 1.010 | 1.019 | 1.051 | 0.995 | 0.312 | 0.298 | 0.326
